Data taken from patent publication US9969755B2, “Photodynamic therapy photosensitizers” (The Royal Institution for the Advancement of …, priority 2016, dated 2018).
Converted amounts (≈) assume the structure as drawn.

Legend:
E. coli ATCC 25922 = assay: Antibacterial photodynamic inactivation, regular vs hydrogen peroxide stressed bacteria (CFU counts); type: cell-based
Experimental: The microorganism used for this study is E. coli ATCC 25922. Stock cultures were preserved at −70° C. using glycerol 10% (v/v) as the cryoprotectant, and the strain was grown in Luria Bertania broth (LB). Bacterial culture was prepared inoculating a single colony from a pure culture. After overnight incubation at 37° C. for 18 h, the culture reached a density of approximately 1×10^9 CFU/mL and it was diluted to 10^6 CFU/mL.
At the end of the irradiation time, 100 μL aliquots were placed in 96 wells from each tube and serially diluted 10-fold in PBS to obtain dilutions of 10^1 to 10^4 fold, in addition to the original concentration, on agar plates to determine CFU. Viability counts were performed at 0 and 1 hour in either dark or light conditions from each dilution, 10 μL aliquots were plated on LB agar. Plates were streaked in triplicate and incubated for 18 h at 37° C. Each experiment was performed at least three times on different days.
To stress the cells we utilized hydrogen peroxide, known to stimulate ROS production in Gram-negative cells.^79,80 We incubated bacteria from the E. coli strain (10^6 colony forming units (CFU)/mL) with 500 nM hydrogen peroxide for 2 hours at 37° C. Following precipitation and resuspension of this bacteria in media with no H2O2, we added compound 7. In parallel, compound 7 was also added to bacteria that were not exposed to H2O2.

[1] = Intermolecular quenching of ^1O2 phosphorescence by chromanol rings; type: physicochemical; conditions: ^1O2 generated upon irradiation of compound 5, air equilibrated acetonitrile
Description: To test whether 7 is equally efficient at deactivating ^1O2 as α-tocopherol, we generated ^1O2 upon irradiation of compound 5 and monitored the ^1O2 phosphorescence lifetime in the presence of increasing amounts of either 7 or PMHC (an α-tocopherol analogue lacking the phytyl tail).

[2] = Autocatalytic activation of compound 7 (monitoring ^1O2 phosphorescence); type: physicochemical
Experimental: ^1O2 phosphorescence (1270 nm) was monitored with a Hamamatsu NIR detector after different irradiation periods with a Nd:YAG laser operating at 10 Hz. The energy of each laser pulse was 10 mJ exciting at 532 nm. Using the same procedure as described above (Determination of ^1O2 Quantum Yield), a total of 3 laser shots were applied to acquire a trace at different time intervals following the continuous irradiation by a second Nd:YAG laser setup. Laser excitation was performed at 10 Hz, providing one laser output for every discharge of the flashlamp. The energy of each laser pulse was 10 mJ. To prepare the samples with PMHC, we first added to the solvent (acetonitrile, air equilibrated) the desired amount of PMHC from a stock solution. Then, compound 7 was dissolved until reaching Abs=0.3 ([7]=5.8 μM). For the samples containing compound 4, we first dissolved 4 in a stock solution of acetonitrile containing 0.12 μM of PMHC and then the desired volume of this solution was added to the solution containing 7 and same concentration of the antioxidant (0.12 μM of PMHC).

CC1=C(Br)C(C)=[N+]2C1=C(CC1(C)CCc3c(C)c(O)c(C)c(C)c3O1)c1c(C)c(Br)c(C)n1[B-]2(F)F (centres unmarked) [Compound 7, 8-((6-Hydroxy-2,5,7,8-tetramethylchroman-2-yl)-methyl)-2,6-dibromo-1,3,5,7-tetramethyl]
colony forming units after irradiation, stressed cells (E. coli ATCC 25922; E. coli incubated with 500 nM hydrogen peroxide 2 h, 1 h irradiation 2.6 mW/cm^2, 520 nm): drastic drop in colony forming units | MIC (E. coli ATCC 25922; Escherichia coli, ATCC25922, 7 activated in the stressed bacterial suspension (500 nM hydrogen peroxide), 9 pre-activated with dicumyl peroxide, 1 hour, read-out: PD-MIC): 10 µM (≈ 6.24 µg/mL) | colony forming units, dark controls (E. coli ATCC 25922; in the dark, 7 with or without H2O2): no effect in the CFU | colony forming units after irradiation, non-stressed cells (E. coli ATCC 25922; no H2O2, 1 h irradiation 2.6 mW/cm^2, 520 nm): No inactivation was observed | singlet oxygen quenching rate constant kq [1]: 2e+08 M⁻¹ s⁻¹ | φΔ ([2]; 250 μM PMHC added, before prolonged irradiation): undetectable | ^1O2 phosphorescence lifetime ([2]; 250 μM PMHC added, within the instrument response): ~3 μs | increase in φΔ after prolonged irradiation ([2]; 250 μM PMHC, 8 hs, ˜300,000 laser shots, 10 mJ/pulse): ca. 25 fold | fraction of photoexcited 7 undergoing activation through reaction with its own singlet oxygen ([2]; assuming geminate quenching 100% effective, 5-3% chemical): smaller than 2×10^−4 | fraction of photoexcited 7 effectively sensitizing singlet oxygen ([2]; assuming keT˜25×kISC and k′eT˜10×kq[O2]): < 4×10^−3 | increase in φΔ over irradiation time ([2]; direct 532 nm laser excitation, air equilibrated acetonitrile, no PMHC): ca. 6 fold
